In data set [1] the target is T1, native human transporter GlyT1 (Homo sapiens, UniProt P48067).
T1 construct: expressing the native human transporter GlyT1; endogenous in cells; host or cells: SK-N-MC cells (human neuroepithelial cells)
T1 sequence (P48067 1-706): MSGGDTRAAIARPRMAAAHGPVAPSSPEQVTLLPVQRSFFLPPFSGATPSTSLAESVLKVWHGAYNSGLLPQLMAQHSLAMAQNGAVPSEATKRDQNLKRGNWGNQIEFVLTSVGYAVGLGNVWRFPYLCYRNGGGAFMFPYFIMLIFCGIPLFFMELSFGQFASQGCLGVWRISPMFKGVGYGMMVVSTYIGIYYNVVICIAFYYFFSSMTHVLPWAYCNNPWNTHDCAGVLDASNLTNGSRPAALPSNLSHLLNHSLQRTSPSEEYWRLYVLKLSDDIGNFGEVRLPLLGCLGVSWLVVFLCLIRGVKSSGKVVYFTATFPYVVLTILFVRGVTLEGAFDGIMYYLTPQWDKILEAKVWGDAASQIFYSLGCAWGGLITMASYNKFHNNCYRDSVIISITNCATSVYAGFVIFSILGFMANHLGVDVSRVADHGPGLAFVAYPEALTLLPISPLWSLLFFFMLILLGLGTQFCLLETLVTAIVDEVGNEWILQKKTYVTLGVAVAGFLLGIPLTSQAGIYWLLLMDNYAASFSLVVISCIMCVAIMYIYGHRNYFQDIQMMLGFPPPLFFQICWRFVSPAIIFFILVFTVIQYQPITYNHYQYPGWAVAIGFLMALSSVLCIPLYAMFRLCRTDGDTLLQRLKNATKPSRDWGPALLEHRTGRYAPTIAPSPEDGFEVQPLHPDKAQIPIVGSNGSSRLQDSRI
Put plainly: Uptake of [14C]glycine in SK-N-MC cells expressing the native human transporter GlyT1. It is filed as cell-based. The following applies: 10 μM [14C]glycine, 10 min at 37° C., pH 7.4, read-out: IC50 (concentration of the compound which reduces by 50% the specific uptake of glycine). As for the experimental part: Study of Glycine Transportation in SK-N-MC Cells Expressing the Native Human Transporter GlyT1.
The uptake of [^14C]glycine is studied in SK-N-MC cells (human neuroepithelial cells) expressing the native human transporter GlyT1 by measuring the radioactivity incorporated in the presence or absence of the test compound. The cells are cultured as a monolayer for 48 hours in plates pretreated with 0.02% fibronectin. On the day of the experiment, the culture medium is removed and the cells are washed with Krebs-HEPES (4-(2-hydroxyethyl)piperazine-1-ethanesulphonic acid) buffer at pH 7.4. After preincubation for 10 minutes at 37° C. in the presence either of buffer (control batch) or of test compound at various concentrations or of 10 mM of glycine (determination of the non-specific uptake), 10 μM of [^14C]glycine (specific activity 112 mCi/mmol) are subsequently added. Incubation is continued for 10 min at 37° C. and the reaction is halted by washing twice with pH 7.4 Krebs-HEPES buffer. The radioactivity incorporated by the cells is then estimated after adding 100 μl of liquid scintillant and stirring for 1 h. Counting is carried out on a Microbeta Tri-Lux™ counter. The effectiveness of the compound is determined by the IC50, the concentration of the compound which reduces by 50% the specific uptake of glycine, defined by the difference in radioactivity incorporated by the control batch and the batch which received the 10 mM glycine.

Molecules are shown by their SMILES. Structures can show the parent of a compound that is named as a salt.

As a reminder, the melting point is the temperature of the solid-liquid transition. `CSc1ccc(Cl)c(C(=O)NC(c2ccccc2)C23CC(CN2)C3)c1` (racemic) [Compound 11, N-[(2-Azabicyclo[2.1.1]hex-1-yl)(phenyl)methyl]-2-chloro-5-(methylsulphanyl)-benzamide] came in with a melting point of 115 to 117 °C. In addition, in data set [1], the IC50 worked out at 160 nM.

As for `O=C(NC(c1ccccc1)C12CC(CN1)C2)c1cccc(C(F)(F)F)c1Cl` (racemic) [Compound 5, N-[(2-azabicyclo[2.1.1]hex-1-yl)(phenyl)methyl]-2-chloro-3-(trifluoromethyl)benzamide hydrochloride (1:1)], in data set [1], the IC50 was found to be 26 nM.

Turning to `CC(C)(O)CN1CC2CC1(C(NC(=O)c1c(Cl)ccc(C(F)(F)F)c1Cl)c1ccccc1)C2` (racemic) [Compound 22], the IC50 in data set [1] turned out to be 110 nM.

For the molecule `CCc1ccccc1C(=O)NC(c1ccccc1)C12CC(CN1CC)C2` (racemic) [Compound 31, 2-Ethyl-N-[(2-ethyl-2-azabicyclo[2.1.1]hex-1-yl)(phenyl)methyl]benzamide], the IC50 in data set [1] came out at 1.6 nM.

For `CN1CC2CC1(C(NC(=O)c1cccc(C(F)(F)F)c1Cl)c1ccccc1)C2.Cl` (racemic) [Compound 18, 2-Chloro-N-[(2-methyl-2-azabicyclo[2.1.1]hex-1-yl)(phenyl)methyl]-3-(trifluoromethyl)benzamide hydrochloride (1:1)], the melting point fell in the range of 168.5 to 169.5 °C. In addition, the IC50 in data set [1] was 21 nM.

Turning to `O=C(NC(c1ccccc1)C12CC(CN1CC(F)(F)F)C2)c1c(Cl)ccc(C(F)(F)F)c1Cl` (racemic) [Compound 23, 2,6-Dichloro-N-{(phenyl)[2-(2,2,2-trifluoroethyl)-2-azabicyclo[2.1.1]hex-1-yl]methyl}-3-(trifluoromethyl)benzamide], the melting point was 82 to 83 °C. Further, the IC50 in data set [1] turned out to be 300 nM.

On to `Nc1ccc(C(NC(=O)c2cccc(C(F)(F)F)c2Cl)C23CC(CN2)C3)cc1` (racemic) [Compound 1, N-[(4-Aminophenyl)(2-azabicyclo[2.1.1]hex-1-yl)methyl]-2-chloro-3-(trifluoromethyl)-benzamide], for which the IC50 in data set [1] was 1100 nM.

Source of the values: patent US20120071536A1, “N-[(2-AZABICYCLO[2.1.1]HEX-1-YL)-ARYL-METHYL]-BENZAMIDE DERIVATIVES, PREPARATION THEREOF, AND THERAPEUTIC USE THEREOF” (SANOFI, priority 2009, published 2012).
